Patent publication US20090087420A1, “STABLE SOLUTION OF REDUCED COENZYME Q” (Kaneka Corporation, priority 2001, published 2009)

Assay: Oxidation stability of reduced coenzyme Q10 solubilized with a surfactant during air storage
Format: physicochemical
Settings: for period of stable storage: 0.05% by weight reduced coenzyme Q10, air storage at 23° C. (FIG. 4)
Method: A solution of reduced coenzyme Q10 using a surfactant was prepared by the method described below, and the oxidation stability under storage was evaluated. As the surfactant, Polysolvate 80 (Tween 80) or polyoxyethylene hardened castor oil (HCO 60) was used, and an aqueous solution of 1% by weight or 0.1% by weight of the surfactant was prepared. Then, the reduced coenzyme Q10 was added to the aqueous solution so that the final concentration of the solution was 0.05% by weight. […] In FIG. 4, each value is an average with n=2. […] The results of this test indicate that with a surfactant concentration of 0.1% by weight, the reduced coenzyme Q10 can be stably stored at 23° C. for about 1 month. […] Therefore, when preparing a solution or emulsion with a surfactant, the concentration of the surfactant used is decreased to prepare a solution which can be stored for a longer period of time. A solution or emulsion with 1% by weight or more of a surfactant can be used under conditions in which the solution or emulsion is prepared before use, or the solution or emulsion is stored for a short period or stored in an airtight condition such as a completely anaerobic condition.

In the case of `COc1c(O)c(C)c(C/C=C(\C)CC/C=C(\C)CC/C=C(\C)CC/C=C(\C)CC/C=C(\C)CC/C=C(\C)CC/C=C(\C)CC/C=C(\C)CC/C=C(\C)CCC=C(C)C)c(O)c1OC` [reduced coenzyme Q10], the “period of stable storage” value (surfactant (Tween 80 or HCO 60) concentration 0.1% by weight) is reported as “about 1 month”, the “period of stable storage” value (surfactant (Tween 80 or HCO 60) concentration 1% by weight) is reported as 1 week and the “oxidation after the stable period (in words)” value (surfactant concentration 1% by weight, after 1 week of air storage at 23° C.) is reported as “rapidly oxidized”.
